Experiments:
Assay in all cases: KINOMEscan competition binding
Details in all cases: compound 10.0 µM
LTK (human) = LTK (human) (UniProt P29376)
MAP3K1 (human) = MAP3K1 (human) (UniProt Q13233)
VRK2 (human) = VRK2 (human) (UniProt Q86Y07)
CDK17 (human) = CDK17 (human) (UniProt Q00537)
DYRK1A (human) = DYRK1A (human) (UniProt Q13627)
PIP4K2C (human) = PIP4K2C (human) (UniProt Q8TBX8)
MAP2K3 (human) = MAP2K3 (human) (UniProt P46734)
EPHA6 (human) = EPHA6 (human) (UniProt Q9UF33)
RPS6KA5 KD2 (human) = RPS6KA5 KD2 (human) (UniProt O75582)
RPS6KA5 KD2 (human), sequence (O75582 whole entry, looked up): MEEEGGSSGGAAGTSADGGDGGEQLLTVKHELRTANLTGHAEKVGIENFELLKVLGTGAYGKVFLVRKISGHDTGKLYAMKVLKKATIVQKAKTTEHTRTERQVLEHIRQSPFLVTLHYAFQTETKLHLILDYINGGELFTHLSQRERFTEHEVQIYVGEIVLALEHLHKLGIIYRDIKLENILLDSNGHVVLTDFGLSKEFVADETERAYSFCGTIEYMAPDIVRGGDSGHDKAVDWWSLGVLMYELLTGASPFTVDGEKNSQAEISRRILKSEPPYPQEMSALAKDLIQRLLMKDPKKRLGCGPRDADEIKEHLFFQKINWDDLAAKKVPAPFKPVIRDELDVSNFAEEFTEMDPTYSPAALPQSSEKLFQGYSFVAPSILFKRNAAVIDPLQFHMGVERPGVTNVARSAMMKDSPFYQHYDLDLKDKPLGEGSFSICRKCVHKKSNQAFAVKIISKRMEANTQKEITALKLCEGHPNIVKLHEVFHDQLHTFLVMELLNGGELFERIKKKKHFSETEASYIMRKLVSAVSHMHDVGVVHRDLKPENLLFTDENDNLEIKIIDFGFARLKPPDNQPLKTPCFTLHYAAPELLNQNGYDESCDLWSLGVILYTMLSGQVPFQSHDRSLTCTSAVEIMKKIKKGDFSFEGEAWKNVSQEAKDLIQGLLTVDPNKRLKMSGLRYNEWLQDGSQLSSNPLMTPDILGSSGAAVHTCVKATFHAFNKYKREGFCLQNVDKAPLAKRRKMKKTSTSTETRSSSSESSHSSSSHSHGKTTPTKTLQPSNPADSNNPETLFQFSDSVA

EIF2AK2 (human) = EIF2AK2 (human) (UniProt P19525)
EIF2AK2 (human), sequence (P19525 whole entry, looked up): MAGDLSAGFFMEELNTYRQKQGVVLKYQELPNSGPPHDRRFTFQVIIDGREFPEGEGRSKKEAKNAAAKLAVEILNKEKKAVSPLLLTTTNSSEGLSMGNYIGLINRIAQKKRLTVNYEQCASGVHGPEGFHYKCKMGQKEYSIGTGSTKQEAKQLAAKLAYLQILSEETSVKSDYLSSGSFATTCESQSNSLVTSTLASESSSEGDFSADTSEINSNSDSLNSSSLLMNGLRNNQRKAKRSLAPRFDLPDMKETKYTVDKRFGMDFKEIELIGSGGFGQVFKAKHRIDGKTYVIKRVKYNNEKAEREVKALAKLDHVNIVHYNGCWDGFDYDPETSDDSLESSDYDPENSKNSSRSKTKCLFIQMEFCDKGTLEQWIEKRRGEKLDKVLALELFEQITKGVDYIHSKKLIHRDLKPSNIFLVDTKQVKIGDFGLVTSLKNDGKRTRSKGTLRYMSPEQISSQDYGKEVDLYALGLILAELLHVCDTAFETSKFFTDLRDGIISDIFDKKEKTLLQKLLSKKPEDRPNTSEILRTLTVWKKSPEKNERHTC

EPHA1 (human) = EPHA1 (human) (UniProt P21709)
PKN1 (human) = PKN1 (human) (UniProt Q16512)
STK4 (human) = STK4 (human) (UniProt Q13043)
CSNK1A1L (human) = CSNK1A1L (human) (UniProt Q8N752)
PRKCQ (human) = PRKCQ (human) (UniProt Q04759)
MAP3K15 (human) = MAP3K15 (human) (UniProt Q6ZN16)
MAP3K15 (human), sequence (Q6ZN16 whole entry, looked up): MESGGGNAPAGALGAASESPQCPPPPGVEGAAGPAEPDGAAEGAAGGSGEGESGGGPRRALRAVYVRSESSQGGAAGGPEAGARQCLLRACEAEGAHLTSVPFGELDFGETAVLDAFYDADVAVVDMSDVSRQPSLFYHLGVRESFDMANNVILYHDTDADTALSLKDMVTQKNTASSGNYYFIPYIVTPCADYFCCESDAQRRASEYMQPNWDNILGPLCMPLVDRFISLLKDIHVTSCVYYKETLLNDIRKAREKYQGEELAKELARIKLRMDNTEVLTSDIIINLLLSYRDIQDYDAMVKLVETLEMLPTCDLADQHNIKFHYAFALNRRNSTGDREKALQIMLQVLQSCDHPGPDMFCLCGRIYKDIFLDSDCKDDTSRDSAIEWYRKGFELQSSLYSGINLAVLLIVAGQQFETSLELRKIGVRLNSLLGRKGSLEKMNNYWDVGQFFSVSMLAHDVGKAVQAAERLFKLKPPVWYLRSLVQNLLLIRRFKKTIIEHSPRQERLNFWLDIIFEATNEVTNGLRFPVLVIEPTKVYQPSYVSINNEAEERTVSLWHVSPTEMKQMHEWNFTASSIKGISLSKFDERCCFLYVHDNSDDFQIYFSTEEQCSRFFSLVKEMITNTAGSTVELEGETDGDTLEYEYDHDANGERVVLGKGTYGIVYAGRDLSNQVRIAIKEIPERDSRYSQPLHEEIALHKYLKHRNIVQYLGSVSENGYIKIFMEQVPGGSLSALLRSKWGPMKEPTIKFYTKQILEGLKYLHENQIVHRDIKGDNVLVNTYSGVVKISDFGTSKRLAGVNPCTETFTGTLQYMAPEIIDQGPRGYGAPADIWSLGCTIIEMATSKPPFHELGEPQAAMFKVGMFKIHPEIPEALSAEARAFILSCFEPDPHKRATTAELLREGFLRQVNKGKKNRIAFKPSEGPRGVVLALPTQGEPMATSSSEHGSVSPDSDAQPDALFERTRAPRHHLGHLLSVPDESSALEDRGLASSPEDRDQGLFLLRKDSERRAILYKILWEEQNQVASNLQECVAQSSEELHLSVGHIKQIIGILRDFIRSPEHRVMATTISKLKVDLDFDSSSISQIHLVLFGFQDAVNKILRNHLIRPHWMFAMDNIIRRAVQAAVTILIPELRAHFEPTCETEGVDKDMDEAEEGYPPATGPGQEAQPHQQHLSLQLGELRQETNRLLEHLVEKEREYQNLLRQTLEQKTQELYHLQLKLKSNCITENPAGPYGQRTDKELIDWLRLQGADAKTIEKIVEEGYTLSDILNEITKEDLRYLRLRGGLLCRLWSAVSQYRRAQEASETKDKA

MAPK14 (human) = MAPK14 (human) (UniProt Q16539)
TLK1 (human) = TLK1 (human) (UniProt Q9UKI8)
TLK1 (human), sequence (Q9UKI8 whole entry, looked up): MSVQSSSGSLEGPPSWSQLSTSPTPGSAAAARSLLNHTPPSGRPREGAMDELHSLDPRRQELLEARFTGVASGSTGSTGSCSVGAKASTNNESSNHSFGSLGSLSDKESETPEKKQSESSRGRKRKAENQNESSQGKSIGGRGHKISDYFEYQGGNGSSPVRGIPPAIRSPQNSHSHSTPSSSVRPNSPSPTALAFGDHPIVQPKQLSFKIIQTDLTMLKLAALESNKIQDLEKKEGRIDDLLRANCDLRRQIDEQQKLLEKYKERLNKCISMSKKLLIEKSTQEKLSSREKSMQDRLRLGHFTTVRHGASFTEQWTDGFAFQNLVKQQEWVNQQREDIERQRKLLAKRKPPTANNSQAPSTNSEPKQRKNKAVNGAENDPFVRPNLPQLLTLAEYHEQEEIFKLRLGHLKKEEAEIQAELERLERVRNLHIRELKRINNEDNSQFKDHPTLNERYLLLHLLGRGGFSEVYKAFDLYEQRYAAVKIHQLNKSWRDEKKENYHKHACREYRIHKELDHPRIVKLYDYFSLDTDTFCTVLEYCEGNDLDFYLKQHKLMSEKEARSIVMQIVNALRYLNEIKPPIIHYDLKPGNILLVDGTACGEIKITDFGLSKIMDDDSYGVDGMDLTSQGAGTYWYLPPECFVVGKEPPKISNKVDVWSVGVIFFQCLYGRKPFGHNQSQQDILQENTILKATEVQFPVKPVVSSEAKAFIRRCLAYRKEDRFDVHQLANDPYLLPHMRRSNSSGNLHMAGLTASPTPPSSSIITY

FRK (human) = FRK (human) (UniProt P42685)
EPHA4 (human) = EPHA4 (human) (UniProt P54764)
[1] = molecular target: JAK2 JH1 catalytic (human) (UniProt O60674)
CDK2 (human) = CDK2 (human) (UniProt P24941)
TBK1 (human) = TBK1 (human) (UniProt Q9UHD2)
[2] = test system: PIK3CA (human), P42336 [H1047L]
CDK5 (human) = CDK5 (human) (UniProt Q00535)
CDK5 (human), sequence (Q00535 whole entry, looked up): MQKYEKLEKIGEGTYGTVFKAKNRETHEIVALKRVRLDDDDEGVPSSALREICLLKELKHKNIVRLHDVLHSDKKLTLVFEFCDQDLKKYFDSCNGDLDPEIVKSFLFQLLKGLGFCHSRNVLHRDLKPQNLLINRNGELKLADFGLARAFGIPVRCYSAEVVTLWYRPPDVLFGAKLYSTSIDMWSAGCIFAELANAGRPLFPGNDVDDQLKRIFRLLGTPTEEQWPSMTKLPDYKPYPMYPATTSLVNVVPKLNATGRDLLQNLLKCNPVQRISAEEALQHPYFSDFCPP

MAPK3 (human) = MAPK3 (human) (UniProt P27361)
AURKB (human) = AURKB (human) (UniProt Q96GD4)
PRKX (human) = PRKX (human) (UniProt P51817)
PAK3 (human) = PAK3 (human) (UniProt O75914)
DCLK3 (human) = DCLK3 (human) (UniProt Q9C098)
RPS6KA4 KD1 (human) = RPS6KA4 KD1 (human) (UniProt O75676)
CLK2 (human) = CLK2 (human) (UniProt P49760)
MYO3B (human) = MYO3B (human) (UniProt Q8WXR4)
AKT3 (human) = AKT3 (human) (UniProt Q9Y243)
[3] = test system: EGFR (human), P00533 [L858R]
PRKD1 (human) = PRKD1 (human) (UniProt Q15139)
AKT2 (human) = AKT2 (human) (UniProt P31751)
SRPK2 (human) = SRPK2 (human) (UniProt P78362)
SRPK2 (human), sequence (P78362 whole entry, looked up): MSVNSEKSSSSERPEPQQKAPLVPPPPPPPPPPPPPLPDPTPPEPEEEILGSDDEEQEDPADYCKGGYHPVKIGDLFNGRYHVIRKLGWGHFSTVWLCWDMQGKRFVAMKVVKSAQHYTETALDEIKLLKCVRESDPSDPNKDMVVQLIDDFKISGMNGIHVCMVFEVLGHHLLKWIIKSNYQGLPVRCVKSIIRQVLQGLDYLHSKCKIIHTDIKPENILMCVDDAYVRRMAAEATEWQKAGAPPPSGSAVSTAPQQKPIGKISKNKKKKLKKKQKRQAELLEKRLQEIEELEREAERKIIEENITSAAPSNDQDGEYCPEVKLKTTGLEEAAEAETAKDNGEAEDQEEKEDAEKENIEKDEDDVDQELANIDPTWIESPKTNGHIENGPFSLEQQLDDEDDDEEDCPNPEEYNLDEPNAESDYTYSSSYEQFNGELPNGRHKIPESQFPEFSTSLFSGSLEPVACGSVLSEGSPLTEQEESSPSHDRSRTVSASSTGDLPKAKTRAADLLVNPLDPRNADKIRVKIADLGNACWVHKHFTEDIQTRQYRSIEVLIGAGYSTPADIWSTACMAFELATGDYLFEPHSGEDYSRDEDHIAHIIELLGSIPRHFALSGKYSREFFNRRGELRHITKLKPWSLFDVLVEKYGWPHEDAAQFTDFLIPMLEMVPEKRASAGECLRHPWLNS

HUNK (human) = HUNK (human) (UniProt P57058)
CSNK1G1 (human) = CSNK1G1 (human) (UniProt Q9HCP0)
CSNK1G1 (human), sequence (Q9HCP0 whole entry, looked up): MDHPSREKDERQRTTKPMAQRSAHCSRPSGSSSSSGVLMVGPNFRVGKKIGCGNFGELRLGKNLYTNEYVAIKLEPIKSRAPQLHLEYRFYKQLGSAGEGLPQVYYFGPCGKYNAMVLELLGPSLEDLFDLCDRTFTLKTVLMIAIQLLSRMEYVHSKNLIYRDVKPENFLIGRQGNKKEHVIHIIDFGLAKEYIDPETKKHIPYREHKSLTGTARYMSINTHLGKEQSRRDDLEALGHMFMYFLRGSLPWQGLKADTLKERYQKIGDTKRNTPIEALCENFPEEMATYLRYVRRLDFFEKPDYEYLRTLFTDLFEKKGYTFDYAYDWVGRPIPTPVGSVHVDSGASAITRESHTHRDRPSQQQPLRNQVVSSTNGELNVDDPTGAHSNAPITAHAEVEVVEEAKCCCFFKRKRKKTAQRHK

MAPK15 (human) = MAPK15 (human) (UniProt Q8TD08)

COC(=O)Nc1ccc(-c2nc(N3CCOCC3)c3cnn(C4CCN(C(=O)OC)CC4)c3n2)cc1
kinase still bound, per cent of control (LTK (human)): 87% | kinase still bound, per cent of control (MAP3K1 (human)): 94% | kinase still bound, per cent of control (VRK2 (human)): 100% | per cent of control (CDK17 (human)): 100% | kinase still bound, per cent of control (DYRK1A (human)): 88% | kinase still bound, per cent of control (PIP4K2C (human)): 12% | kinase still bound, per cent of control (MAP2K3 (human)): 95% | kinase still bound, per cent of control (EPHA6 (human)): 90% | kinase still bound, per cent of control (RPS6KA5 KD2 (human)): 88% | kinase still bound, per cent of control (EIF2AK2 (human)): 100% | kinase still bound, per cent of control (EPHA1 (human)): 100% | kinase still bound, per cent of control (PKN1 (human)): 97% | kinase still bound, per cent of control (STK4 (human)): 100% | kinase still bound, per cent of control (CSNK1A1L (human)): 91% | kinase still bound, per cent of control (PRKCQ (human)): 99% | kinase still bound, per cent of control (MAP3K15 (human)): 96% | kinase still bound, per cent of control (MAPK14 (human)): 80% | kinase still bound, per cent of control (TLK1 (human)): 91% | kinase still bound, per cent of control (FRK (human)): 99% | kinase still bound, per cent of control (EPHA4 (human)): 88% | kinase still bound, per cent of control [1]: 73% | per cent of control (CDK2 (human)): 91% | kinase still bound, per cent of control (TBK1 (human)): 99% | kinase still bound, per cent of control [2]: 12% | per cent of control (CDK5 (human)): 100% | kinase still bound, per cent of control (MAPK3 (human)): 99% | kinase still bound, per cent of control (AURKB (human)): 100% | kinase still bound, per cent of control (PRKX (human)): 100% | kinase still bound, per cent of control (PAK3 (human)): 83% | kinase still bound, per cent of control (DCLK3 (human)): 92% | kinase still bound, per cent of control (RPS6KA4 KD1 (human)): 94% | kinase still bound, per cent of control (CLK2 (human)): 57% | kinase still bound, per cent of control (MYO3B (human)): 97% | kinase still bound, per cent of control (AKT3 (human)): 100% | kinase still bound, per cent of control [3]: 100% | kinase still bound, per cent of control (PRKD1 (human)): 95% | kinase still bound, per cent of control (AKT2 (human)): 100% | kinase still bound, per cent of control (SRPK2 (human)): 100% | kinase still bound, per cent of control (HUNK (human)): 95% | kinase still bound, per cent of control (CSNK1G1 (human)): 100% | kinase still bound, per cent of control (MAPK15 (human)): 100%

From the kinase profiling compilation of Christmann-Franck et al. (2016)
